From patent US20250129064A1, “PRODRUGS OF 2-BROMO-LSD (2-BRO[…] DIETHYLAMIDE)” (Terran Biosciences Inc., priority 2022, published 2025)
Where “and” joins values, the source holds several entries; their conditions need not be identical. Identical values can stand only once.

Assay: Serial tail vein bleed PK study of 2-Br-LSD and 2-Br-LSD prodrugs in SD rats; 2-Br-LSD measured in plasma
Settings: analyte 2-Br-LSD in plasma; for AUC(0-t): AUC0-last; for half-life: T½
[1] = 2-Br-LSD 1 mg/kg IV, male SD rat, individual animal
[2] = 2-Br-LSD 4 mg/kg oral, male SD rat, individual animal
[3] = male, Sprague-Dawley, rat, plasma, iv, 1 mg/kg, 2-Br-LSD 1 mg/kg IV, male SD rat, individual animal
[4] = male, Sprague-Dawley, rat, plasma, iv, 1 mg/kg, 2-Br-LSD 1 mg/kg IV, male SD rats, mean of 3
[5] = male, Sprague-Dawley, rat, plasma, po, 4 mg/kg, 2-Br-LSD 4 mg/kg oral, male SD rat, individual animal
[6] = male, Sprague-Dawley, rat, plasma, po, 4 mg/kg, 2-Br-LSD 4 mg/kg oral, male SD rats, mean of 3

For `CCN(CC)C(=O)[C@@H]1C=C2c3cccc4[nH]c(Br)c(c34)C[C@H]2N(C)C1` [Example 2-Br-LSD, (6aR,9R)-5-bromo-N,N-diethyl-7-methyl-6,6a,8,9-tetrahydro-4H-indolo[4,3-fg]quinoline-9-carboxamide], the AUC0-inf [1] was 269 ng·h/mL and 308 ng·h/mL, the AUC0-last [1] was 268 ng·h/mL and 304 ng·h/mL and the Cmax [1] was 658 ng/mL and 500 ng/mL. The Tlast [1] was 4.00 h, the T½ [1] was 37.7 min and 44.8 min and the Tlast (2-Br-LSD 1 mg/kg IV, male SD rats, mean of 3) was 4.00 h. For the same compound, the AUC0-inf [2] was 1960 ng·h/mL and 1450 ng·h/mL, the AUC0-last [2] was 1430 ng·h/mL and 997 ng·h/mL and the Cmax [2] was 366.0 ng/mL and 209.0 ng/mL. The Tlast [2] was 7 h, the T½ [2] was 240 min and the Tlast (2-Br-LSD 4 mg/kg oral, male SD rats, mean of 3) was 7 h. For the same compound, the AUC0-inf (male, Sprague-Dawley, rat, plasma, iv, 1 mg/kg, AUC0-inf, 2-Br-LSD 1 mg/kg IV, male SD rat, individual animal) was 280 ng·h/mL, the AUC0-inf (male, Sprague-Dawley, rat, plasma, iv, 1 mg/kg, AUC0-inf, 2-Br-LSD 1 mg/kg IV, male SD rats, mean of 3) was 286 ng·h/mL and the AUC(0-t) [3] was 278 ng·h/mL. For the same compound, the AUC(0-t) [4] was 283 ng·h/mL, the Cmax (male, Sprague-Dawley, rat, plasma, iv, 1 mg/kg, Cmax, 2-Br-LSD 1 mg/kg IV, male SD rat, individual animal) was 577 ng/mL and the Cmax (male, Sprague-Dawley, rat, plasma, iv, 1 mg/kg, Cmax, 2-Br-LSD 1 mg/kg IV, male SD rats, mean of 3) was 578 ng/mL. It also gave a half-life [3] of 44.3 min, a half-life [4] of 42.2 min and an AUC0-inf (male, Sprague-Dawley, rat, plasma, po, 4 mg/kg, AUC0-inf, 2-Br-LSD 4 mg/kg oral, male SD rat, individual animal) of 1780 ng·h/mL. It also gave an AUC0-inf (male, Sprague-Dawley, rat, plasma, po, 4 mg/kg, AUC0-inf, 2-Br-LSD 4 mg/kg oral, male SD rats, mean of 3) of 1730 ng·h/mL, an AUC(0-t) [5] of 1350 ng·h/mL and an AUC(0-t) [6] of 1260 ng·h/mL. The Cmax (male, Sprague-Dawley, rat, plasma, po, 4 mg/kg, Cmax, 2-Br-LSD 4 mg/kg oral, male SD rat, individual animal) was 338 ng/mL, the Cmax (male, Sprague-Dawley, rat, plasma, po, 4 mg/kg, Cmax, 2-Br-LSD 4 mg/kg oral, male SD rats, mean of 3) was 304 ng/mL and the half-life [5] was 216 min. It also gave a half-life [6] of 222 min.
